# In patent publication US20240336566A1, “CRYSTALLINE FORMS OF A COMPOUND FOR THE TARGETED DEGRADATION OF THE ANDROGEN RECEPTOR” (Arvinas Operations, Inc., priority 2023, published 2024):
# What was measured:
# Format in all cases: physicochemical
# [1] = Heating experiment of Compound A free base Pattern 1 (1H NMR after heating to 250° C.); conditions: heated to 250° C. using the TG/DSC
# [2] = 7-day stability assessment (appearance, HPLC, XRPD)
# Experimental: The material was gently ground to release any agglomerates and loaded onto a multi-well plate with Kapton or Mylar polymer film to support the sample. […] Data were visualized and images generated using the HighScore Plus 4.7 desktop application (PANalytical, 2θ17).
# They all remained white or off-white solids. • XRPD analysis determined the patterns were retained.
# [3] = Thermodynamic solubility determination in buffers (HPLC)
# Description: No clear solubility advantage of the salts was noted over Compound A free base.
# [4] = Dynamic vapour sorption (DVS) with XRPD of retained solid
# Experimental: 10-20 mg of sample was placed into a mesh vapour sorption balance pan and loaded into a DVS-1 dynamic vapour sorption balance by Surface Measurement Systems. The sample was subjected to a ramping profile from 40-90% relative humidity (RH) at 10% increments, maintaining the sample at each step until a stable weight had been achieved (dm/dt 0.004%, minimum step length 30 minutes, maximum step length 500 minutes) at 25° C. After completion of the sorption cycle, the sample was dried using the same procedure to 0% RH and then a second sorption cycle back to 40% RH. Two cycles were performed. The weight change during the sorption/desorption cycles were plotted, allowing for the hygroscopic nature of the sample to be determined. XRPD analysis was then carried out on any solid retained.
# [5] = Competitive slurry experiments of free base Patterns 1, 2 and 6 (XRPD); conditions: slurries of Patterns 1, 2 and 6; ambient or 40° C.
# Experimental: XRPD analysis of the second set of competitive slurry experiments was carried out on a Philips X'Pert Pro Multipurpose diffractometer equipped with a spinning stage autosampler. The samples were scanned between 5 and 34.997 °2θ using Cu K radiation (α1γ=1.54060 Å; α2=1.54443 Å; β=1.39225 Å; α1:α2 ratio=0.5) running in Bragg-Brentano geometry (step size 0.008 °2θ, step time 10.160 s, rotation period 2 s) using 40 kV/40 mA generator settings. Data were visualized and images generated using the HighScore Plus 4.7 desktop application (PANalytical, 2θ17).
# • Eight samples were prepared containing 10 mg of free base Patterns 1, 2, and 6. • The appropriate solvent systems were added and observations were noted. • After shaking at either ambient or 40° C., observations were noted and the samples were filtered centrifugally. The solids obtained were analyzed by XRPD.
# • Due to inconclusive results, the solids were returned to the sample vials and 100 μL of the appropriate solvent was added to each sample. The samples were then capped and sealed by parafilm and shaken at ambient or 40° C. as before. • After shaking for 72 hours, the solids were analyzed by XRPD. […]
# [6] = 7 days at 40° C./75% RH (open vial)
# [7] = 7 days at Ambient light (closed vial)
# [8] = Buffer pH 1.2, 25° C., cf concentration of free base, listed as Compound A Free Base Pattern 1
# [9] = Buffer pH 3.0, 25° C., LOQ 0.00025 mg/mL
# [10] = buffer, 25 °C, pH 4, aqueous buffer, thermodynamic from solid, Buffer pH 4.0, LOQ 0.00025 mg/mL
structure (smiles),measurement,setting,value
COc1cc(O[C@H]2C(C)(C)[C@H](NC(=O)c3ccc(N4CCC(CN5CCN(c6ccc(C(=O)N[C@H]7CCC(=O)NC7=O)c(F)c6)CC5)CC4)cc3)C2(C)C)ccc1C#N [free base Pattern 1],degradation after heating (1H NMR),[1],had not degraded
same,HPLC purity,[2]; [6],99.00 % relative area
same,XRPD after stability storage,[2]; [6],No change
same,HPLC purity,"[2]; 7 days at 40° C./75% RH (open vial), listed as Free base Pattern 1",99.00 % relative area
same,HPLC purity,[2]; 7 days at 80° C. (closed vial),99.03 % relative area
same,XRPD after stability storage,[2]; 7 days at 80° C. (closed vial),No change
same,HPLC purity,"[2]; 7 days at 80° C. (closed vial), listed as Free base Pattern 1",99.03 % relative area
same,HPLC purity,[2]; [7],99.07 % relative area
same,XRPD after stability storage,[2]; [7],No change
same,HPLC purity,"[2]; 7 days at Ambient light (closed vial), listed as Free base Pattern 1",99.07 % relative area
same,Total impurities (HPLC),[2]; after 7 days at 40° C./75% RH,1.00 Rel. Area %
same,purity retained after stability storage (HPLC),"[2]; after 7 days at 40° C./75% RH (open vial), 80° C. (closed vial), ambient light (closed vial)",> 99 % relative area
same,Total impurities (HPLC),[2]; after 7 days at 80° C.,0.97 Rel. Area %
same,Total impurities (HPLC),[2]; after 7 days at ambient,0.93 Rel. Area %
same,Total impurities (HPLC),[2]; before stability testing,0.99 Rel. Area %
same,HPLC purity,[2]; before stability testing (condition N/A),99.01 % relative area
same,HPLC purity,"[2]; before stability testing (condition N/A), listed as Free base Pattern 1",99.01 % relative area
same,0 Hr Solubility,[3]; [8],0.1 µg/mL
same,4 Hr Solubility,[3]; [8],26.2 µg/mL
same,24 Hr Solubility,[3]; [8],69.3 µg/mL
same,0 Hr Solubility,[3]; [9],<0.25 µg/mL
same,4 Hr Solubility,[3]; [9],<0.25 µg/mL
same,24 Hr Solubility,[3]; [9],<0.25 µg/mL
same,solubility at 0 h,[3]; [10],< 0.25 µg/mL
same,solubility at 4 h,[3]; [10],< 0.25 µg/mL
same,solubility at 24 h,[3]; [10],< 0.25 µg/mL
same,thermodynamic solubility,"[3]; pH 1.2, after 24 hours, 25° C., as concentration of Compound A free base",69.3 µg/mL
same,DVS hygroscopicity,[4],Slightly hygroscopic
same,Form change after DVS,[4],No
same,form by XRPD post DVS,[4],no form change
same,hygroscopic nature (DVS),[4]; 25° C.,slightly hygroscopic
same,mass uptake of water (DVS),[4]; RH not stated at the place,1.17 wt. %
same,"mass uptake of water (DVS), equivalents",[4]; RH not stated at the place,0.53 eq.
same,DVS water uptake,[4]; at 90% RH,1.17 wt. %
same,DVS water uptake (equivalents of water),[4]; at 90% RH,0.53 eq.
same,relative stability of forms (competitive slurry),[5],thermodynamic form
